Here are results for three compounds from patent US20030144360A1, “Composition and method for modulating BAR/FXR receptor activity” (Allergan Sales, Inc., priority 2001, published 2003).

One data set deals with HepG2 cells. Kind of data set: Northern blot analysis of BAR/FXR target genes in HepG2 cells. It counts as cell-based, human. The following applies: for CYP7A expression / BAR/FXR expression / GAPDH expression / transcription of SHP: 24 hours. Here is the method: (§1) One day prior to treatment, confluent HepG2 and differentiated Caco-2 cells were switched to phenol red-free media containing resin-charcoal stripped FBS and then treated for and additional 24 hours with the indicated compounds. Total RNA was isolated using the Trizol reagent. Northern blots were prepared from polyA^+ RNA using the Oligotex method (Qiagen) and analyzed with the following probes: human CYP7A (accession #M93133) nucleotides 1617-2576 (Karam and Chiang, 185 Biochem. Biophys. Res. Commun. 588 (1992)), human SHP (accession #L76571) nucleotides 888-1355, human IBABP (accession # A1311734), an EST containing the entire coding sequence of IBABP.
(§2) We next tested the ability of AGN 29 and AGN 31 to regulate BAR/FXR target genes. We used the hepatoma cell line HepG2 as a hepatocyte model as this cell line has been used extensively to study cholesterol metabolism and bile acid-mediated gene regulation. We monitored the expression of two well known BAR/FXR target genes: CYP7A, the rate-limiting enzyme for bile acid synthesis, is down regulated by bile acids in HepG2 cells.
To verify that AGN34 represses BAR/FXR […], we looked at its effect on BAR/FXR target genes in cultured cells by Northern blot analysis.

A further data set relates to Caco-2 cells. Kind of data set: Northern blot analysis of BAR/FXR target genes in differentiated Caco-2 cells. In kind it is cell-based, human. The settings on record: for IBABP expression / SHP expression: 10 μM, 24 hours. Here is the method: Caco-2 cells were maintained for 20 days post-confluence to allow differentiation. They were fed twice a week with their regular media during this period.
as §1, §2

For data set [1], the target named is T1, BAR/FXR (BAR-RXR heterodimer) (UniProt P19793+Q62735).
T1 sequence (Q62735 1-469): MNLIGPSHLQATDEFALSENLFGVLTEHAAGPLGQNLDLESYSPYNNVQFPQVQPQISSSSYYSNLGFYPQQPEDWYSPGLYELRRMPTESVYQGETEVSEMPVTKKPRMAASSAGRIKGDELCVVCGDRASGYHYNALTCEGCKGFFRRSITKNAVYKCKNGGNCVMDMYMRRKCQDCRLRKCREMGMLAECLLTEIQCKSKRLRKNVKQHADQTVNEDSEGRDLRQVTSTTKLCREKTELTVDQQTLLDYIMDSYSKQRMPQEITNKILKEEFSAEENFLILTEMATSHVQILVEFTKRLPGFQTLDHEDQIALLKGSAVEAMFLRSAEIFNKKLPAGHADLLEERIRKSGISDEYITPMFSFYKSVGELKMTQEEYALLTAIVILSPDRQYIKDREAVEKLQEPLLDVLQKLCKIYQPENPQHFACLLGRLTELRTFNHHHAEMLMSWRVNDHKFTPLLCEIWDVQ
T1 sequence (P19793 1-462): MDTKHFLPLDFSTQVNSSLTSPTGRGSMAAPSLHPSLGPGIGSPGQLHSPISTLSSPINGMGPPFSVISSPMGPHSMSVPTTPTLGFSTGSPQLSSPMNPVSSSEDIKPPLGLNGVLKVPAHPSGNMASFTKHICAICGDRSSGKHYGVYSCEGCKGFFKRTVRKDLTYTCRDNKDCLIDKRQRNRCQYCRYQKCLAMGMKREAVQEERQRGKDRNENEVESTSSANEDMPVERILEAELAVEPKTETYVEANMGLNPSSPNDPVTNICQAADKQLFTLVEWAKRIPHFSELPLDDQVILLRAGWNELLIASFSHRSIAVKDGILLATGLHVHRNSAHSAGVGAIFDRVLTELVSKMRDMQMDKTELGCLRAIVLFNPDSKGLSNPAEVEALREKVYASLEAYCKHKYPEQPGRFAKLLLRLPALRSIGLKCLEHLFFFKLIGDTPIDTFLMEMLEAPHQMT
As to the kind of experiment: Transient cotransfection luciferase reporter assay, full-length BAR/FXR and RXR in CV-1 cells. The arrangement: repression of the BAR/RXR heterodimer: dose or concentration left out as unconfirmed. The following applies: for activation of BAR/FXR (luciferase expression): 5 μM, 40 hours.

pEC50: −log10 of the molar value.

Regarding `CCCCCCOc1c(\C(C)=C/C=C/C(C)=C/C(=O)O)cc(C(C)C)cc1C(C)C` [AGN 34, (2E, 4E, 6Z)-7-(2-Hexyloxy-3,5-diisopropylphenyl)-3-methylocta-2,4,6-trienoic Acid], the “basal SHP levels” value was “did not affect” in the data set with HepG2 cells (1 μM AGN 34, 24 hours) and “did not affect” in the data set with Caco-2 cells (1 μM AGN 34, 24 hours). In addition, the CYP7A expression entry is reported as “repressed” in the data set on HepG2 cells (AGN 34 alone); “repressed even further” with HepG2 cells (combination of AGN 34 and CDCA). Further, the “CDCA-induced IBABP levels” value in the data set on Caco-2 cells (100 μM CDCA + 1 μM AGN34, 24 hours) was “reduced the induced IBABP levels close to basal levels”. In addition, in data set [1], the “repression of the BAR/RXR heterodimer” value was around 10 fold. Also, the “repression of CDCA-activated transcription” value in data set [1] (0.03 μM AGN 34, constant concentration of CDCA) is on record as “approximately 85%”. In addition, the “repression of CDCA-activated BAR-mediated transcription” value in data set [1] (50 μM CDCA + 1 μM AGN 34) is around 10 fold. The “basal activity of luciferase gene expression” value in data set [1] (AGN 34 (1 μM) without CDCA) is “did not affect”. Moreover, in data set [1] (constant concentration of CDCA), the “concentration showing maximal activity (repression)” value amounted to 1 µM.

In the case of `CCCC/C(=C\c1ccc(C(=O)O)cc1)c1ccc2c(c1)C(C)(C)CCC2(C)C` [AGN 31, 4-[2-(5,5,8,8-Tetramethyl-5,6,7,8-tetrahydronaphthalen-2-yl)hex-1-enyl]benzoic Acid], in the data set with HepG2 cells (10 μM), the BAR/FXR expression entry was “no effect”, the CYP7A expression entry is “repress”, the GAPDH expression result is given as “no effect” and the “transcription of SHP” value was “induce”. Moreover, in the data set with Caco-2 cells, the IBABP expression entry was “strongly induced” and the SHP expression result was “strongly induced”. Besides, in data set [1], the pEC50 was around 5.70 and the “activation of BAR/FXR (luciferase expression)” value is reported as 85 fold.

Take `Cc1cc2c(cc1/C(=C/c1ccc(C(=O)O)cc1)[Si](C)(C)C)C(C)(C)CCC2(C)C` [AGN 29, (Z)-4-[2-(3,5,5,8,8-Pentamethy1-5,6,7,8-tetrahydronaphthalen-2-yl)-2-(trimethylsilyl)vinyl]benzoic Acid]: in the data set with HepG2 cells (10 μM), the BAR/FXR expression result was “no effect”, the CYP7A expression entry is reported as “repress”, the GAPDH expression result is “no effect” and the “transcription of SHP” value is “induce”. Also, in the data set on Caco-2 cells, the IBABP expression entry was “strongly induced” and the SHP expression result is “strongly induced”. Also, in data set [1], the pEC50 was around 5.70 and the “activation of BAR/FXR (luciferase expression)” value is 91 fold.

Usually pEC50 stands for the negative decadic logarithm of the EC50, by convention in mol/L.
